Reference: patent publication US20230295152A1 (SENDA BIOSCIENCES, INC., priority 2019, published 2023)
Converted amounts (≈) assume the structure as drawn. Read-outs that look alike come from different tables or passages of the source.

Legend:
[1] = Solubility Determination Assay in PBS pH 1.6 and pH 7.4; format: physicochemical; details: PBS buffer, aqueous buffer, kinetic from dmso stock
How it was run: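 Compounds from 10 mM DMSO stock diluted into PBS pH 1.6 or pH 7.4 (15 μL into 485 μL), stirred 2 hours, then filtered. Filtrate quantified by LC-MS/MS against a standard of known concentration with internal standard; single determination.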

[2] = Hepatocyte Stability Assay, human; format: in vitro ADME; details: for CLint scaled at 1 μM: cryopreserved hepatocytes in suspension, human hepatocytes, read-out: Human hepatocyte clearance
[3] = PBS pH 1.6, 25° C., read-out: Aq. Solubility at pH = 1.6
[4] = PBS pH 7.4, 25° C., read-out: Aq. Solubility at pH = 7.4

solubility at 2 h [1, 3] [µM] | solubility at 2 h [1, 4] [µM] | CLint scaled at 1 μM [2] [mL/min/kg] | SMILES | Human hepatocyte intrinsic clearance, suspension Hheps ClInt (% Qh) ([2]; suspension human hepatocytes)
≥ 1 | ≥ 1 | < 20 | C[C@@H](O)Cn1cnc2c(-c3cccnc3)nc(-c3ccc(C(F)(F)F)nc3)cc2c1=O [Compound 112, (R)-3-(2-hydroxypropyl)-8-(pyridin-3-yl)-6-(6-(trifluoromethyl)pyridin-3-yl)pyrido[3,4-d]pyrimidin-4(3H)-one] | –
≥ 1 | 0.1 to 1 (≈ 0.0456 to 0.456 µg/mL) | < 20 | Cn1cc(-c2nc(-c3ccc(C4CC4)nc3)cc3c(=O)n(C[C@H](O)C(F)(F)F)cnc23)cn1 [Compound 136, (S)-6-(6-cyclopropylpyridin-3-yl)-8-(1-methyl-1H-pyrazol-4-yl)-3-(3,3,3-trifluoro-2-hydroxypropyl)pyrido[3,4-d]pyrimidin-4(3H)-one] | –
≥ 1 | ≥ 1 | < 20 | Cn1cc(-c2nc(-c3ccc(C(F)(F)F)nc3)cc3c(=O)n(CC(C)(C)O)cnc23)cn1 [Compound 60] | –
– | ≥ 1 | < 20 | C[C@@H](CO)n1cnc2c(-c3cccc(F)c3)nc(-c3ccc(C(F)(F)F)nc3)cc2c1=O [Compound 8] | –
0.1 to 1 (≈ 0.043 to 0.43 µg/mL) | 0.1 to 1 (≈ 0.043 to 0.43 µg/mL) | < 20 | CC(C)(O)Cn1cnc2c(-c3cn[nH]c3)nc(-c3ccc(C(F)(F)F)nc3)cc2c1=O [Compound 51] | –
≥ 1 | ≥ 1 | 20 to 50 | C[C@@H](CO)n1cnc2c(-c3cnsc3)nc(-c3ccc(C(F)(F)F)nc3)cc2c1=O [Compound 55] | –
≥ 1 | ≥ 1 | < 20 | CC(C)(O)Cn1cnc2c(-c3cccnc3)nc(-c3ccc(Cl)cc3)cc2c1=O [Compound 18] | –
≥ 1 | 0.1 to 1 (≈ 0.0447 to 0.447 µg/mL) | < 20 | O=c1c2cc(-c3ccc(Cl)cc3)nc(-c3cccnc3)c2ncn1C[C@@H](O)C(F)(F)F (single isomer, unassigned) [185 enantiomer 1] | –
0.1 to 1 (≈ 0.0424 to 0.424 µg/mL) | < 0.1 | < 20 | Cn1cc(-c2nc(-c3ccc(Cl)cc3)cc3c(=O)n([C@H]4COC[C@H]4O)cnc23)cn1 [Compound 92] | –
≥ 1 | ≥ 1 | < 20 | Cc1ncc(-c2cc3c(=O)n([C@@H](C)CO)cnc3c(-c3cccnc3)n2)s1 [Compound 89] | –
– | 0.1 to 1 (≈ 0.0424 to 0.424 µg/mL) | < 20 | C[C@@H](n1cnc2c(-c3cnn(C)c3)nc(-c3ccc(Cl)cc3)cc2c1=O)C(C)(C)O [Compound 31] | –
0.1 to 1 (≈ 0.0396 to 0.396 µg/mL) | 0.1 to 1 (≈ 0.0396 to 0.396 µg/mL) | < 20 | C[C@@H](CO)n1cnc2c(-c3cnn(C)c3)nc(-c3ccc(Cl)cc3)cc2c1=O [Compound 27] | –
≥ 1 | ≥ 1 | < 20 | C[C@@H](CO)n1cnc2c(-n3ccnc3)nc(-c3ccc(C(F)(F)F)nc3)cc2c1=O [Compound 163, (S)-3-(1-hydroxypropan-2-yl)-8-(1H-imidazol-1-yl)-6-(6-(trifluoromethyl)pyridin-3-yl)pyrido[3,4-d]pyrimidin-4(3H)-one] | –
≥ 1 | ≥ 1 | < 20 | C[C@@H](CO)n1cnc2c(-c3cnn(C)c3)nc(-c3ccc(C4CC4)nc3)cc2c1=O [Compound 83] | –
≥ 1 | 0.1 to 1 (≈ 0.0399 to 0.399 µg/mL) | 20 to 50 | C[C@@H](CO)n1cnc2c(N3CCCCC3)nc(-c3ccc(Cl)cc3)cc2c1=O [Compound 177, (S)-6-(4-chlorophenyl)-3-(1-hydroxypropan-2-yl)-8-(piperidin-1-yl)pyrido[3,4-d]pyrimidin-4(3H)-one] | –
≥ 1 | ≥ 1 | 20 to 50 | Cc1ccc(-c2cc3c(=O)n([C@@H](C)CO)cnc3c(-c3cccnc3)n2)cc1 [Compound 17, (S)-3-(1-hydroxypropan-2-yl)-8-(pyridin-3-yl)-6-(p-tolyl)pyrido[3,4-d]pyrimidin-4(3H)-one] | –
≥ 1 | ≥ 1 | < 20 | CC(C)(O)Cn1cnc2c(-c3cccnc3)nc(-c3ccc(C(F)(F)F)cn3)cc2c1=O [Compound 105] | –
0.1 to 1 (≈ 0.0484 to 0.484 µg/mL) | < 0.1 | < 20 | Cn1cc(-c2nc(-c3ccc(C(F)(F)F)nc3)cc3c(=O)n(C[C@H](O)C(F)(F)F)cnc23)cn1 [Compound 111, (S)-8-(1-methyl-1H-pyrazol-4-yl)-3-(3,3,3-trifluoro-2-hydroxypropyl)-6-(6-(trifluoromethyl)pyridin-3-y1)pyrido[3,4-d]pyrimidin-4(3H)-one] | –
≥ 1 | ≥ 1 | < 20 | O=c1c2cc(-c3ccc(C4CC4)nc3)nc(-c3cccnc3)c2ncn1C[C@H](O)C(F)(F)F [Compound 120, (S)-6-(6-cyclopropylpyridin-3-yl)-8-(pyridin-3-yl)-3-(3,3,3-trifluoro-2-hydroxypropyl)pyrido[3,4-d]pyrimidin-4(3H)-one] | –
≥ 1 | ≥ 1 | < 20 | Cc1nc(-c2cc3c(=O)n([C@@H](C)CO)cnc3c(-c3cccnc3)n2)cs1 [Compound 183, (S)-3-(1-hydroxypropan-2-yl)-6-(2-methylthiazol-4-yl)-8-(pyridin-3-yl)pyrido[3,4-d]pyrimidin-4(3H)-one] | –
≥ 1 | ≥ 1 | < 20 | CC(C)(O)Cn1cnc2c(-c3cccnc3)nc(-c3ccc(C4CC4)nc3)cc2c1=O [Compound 81] | –
≥ 1 | ≥ 1 | < 20 | C[C@@H](CO)n1cnc2c(-c3cccnc3)nc(-c3ccc(C(F)(F)F)cc3)cc2c1=O [Compound 23] | –
≥ 1 | ≥ 1 | < 20 | O=c1c2cc(-c3ccc(C(F)(F)F)cn3)nc(-c3cccnc3)c2ncn1[C@H]1COC[C@@H]1O [Compound 139, 3-((3S,4R)-4-hydroxytetrahydrofuran-3-yl)-8-(pyridin-3-yl)-6-(5-(trifluoromethyl)pyridin-2-yl)pyrido[3,4-d]pyrimidin-4(3H)-one] | –
≥ 1 | ≥ 1 | < 20 | C[C@H](n1cnc2c(-c3cccnc3)nc(-c3cccnc3)cc2c1=O)C(C)(C)O [Compound 34] | –
≥ 1 | ≥ 1 | < 20 | C[C@@H](CO)n1cnc2c(-c3cccnc3)nc(-c3ccc(OC(F)(F)F)cc3)cc2c1=O [Compound 22] | –
≥ 1 | < 0.1 | < 20 | O=c1c2cc(-c3ccc(OC(F)(F)F)cc3)nc(-c3cccnc3)c2ncn1C[C@H](O)C(F)(F)F [Compound 124, (S)-8-(pyridin-3-yl)-3-(3,3,3-trifluoro-2-hydroxypropyl)-6-(4-(trifluoromethoxy)phenyl)pyrido[3,4-d]pyrimidin-4(3H)-one] | –
≥ 1 | ≥ 1 | < 20 | C[C@@H](CO)n1cnc2c(-c3cccnc3)nc(-c3ccc(C4CC4)nc3)cc2c1=O [Compound 74] | –
≥ 1 | ≥ 1 | < 20 | O=c1c2cc(-c3ccc(C(F)(F)F)cn3)nc(-c3cccnc3)c2ncn1C[C@H](O)C(F)(F)F [Compound 104, (S)-8-(pyridin-3-yl)-3-(3,3,3-trifluoro-2-hydroxypropyl)-6-(5-(trifluoromethyl)pyridin-2-yl)pyrido[3,4-d]pyrimidin-4(3H)-one] | –
0.1 to 1 (≈ 0.0424 to 0.424 µg/mL) | 0.1 to 1 (≈ 0.0424 to 0.424 µg/mL) | < 20 | Cn1cc(-c2nc(-c3ccc(Cl)cc3)cc3c(=O)n([C@H]4COC[C@@H]4O)cnc23)cn1 [Compound 116] | –

SMILES | solubility at 2 h [1, 3] [µM] | solubility at 2 h [1, 4] [µM] | CLint scaled at 1 μM [2] [mL/min/kg] | Human hepatocyte intrinsic clearance, suspension Hheps ClInt (% Qh) ([2]; suspension human hepatocytes)
CC(C)(O)Cn1cnc2c(-c3cccnc3)nc(-c3ccc(C(F)(F)F)nc3)cc2c1=O [Compound 9] | ≥ 1 | ≥ 1 | < 20 | <31
C[C@@H](CO)n1cnc2c(-c3cccc(F)c3)nc(-c3ccc(Cl)cc3)cc2c1=O [Compound 7] | 0.1 to 1 (≈ 0.041 to 0.41 µg/mL) | < 0.1 | 20 to 50 | –
